Measured values taken from publication PMC12067438 (Journal of Medicinal Chemistry, 2025).

Legend:
[1] = tested on: global proteome of H1792 SMARCA4-WT cell line; test: Quantitative TMT mass spectrometry of global proteome; type: cell-based, human; details: 100 nM YDR1 48 h, 20 nM YD54 24 h
YAP1 = YAP1 phosphorylation immunoblot in H322 cells; type: cell-based, human; details: H322 SMARCA4 mutant cells, 96 h; 1 µM YDR1, 0.1 µM YD54
[2] = Mouse liver microsomal stability assay; type: in vitro ADME; details: for remaining (T = 60 min): mouse microsomal assay, with NADPH; for CLint scaled at 1 h / half-life at 1 h / microsomal CLint at 1 h: mouse, liver microsomes
[3] = Human liver microsomal stability assay; type: in vitro ADME; details: for remaining (T = 60 min): with NADPH
[4] = Plasma pharmacokinetics after single oral or intraperitoneal dose; type: in vivo, mouse; details: for Oral bioavailability (in words): 25 mg/kg oral, mice
[5] = tested on: H2023 xenograft model (SMARCA4 mutant); test: H2023 xenograft antitumor efficacy; type: in vivo, mouse; details: 5 mg/kg once daily, 19 days
[6] = tested on: HCC515 xenograft model (SMARCA4 mutant); test: HCC515 xenograft antitumor efficacy; type: in vivo, mouse; details: 5 mg/kg once daily, 19 days, 1% Tween 80 formulation
[7] = tested on: H2030 xenograft model (SMARCA4 mutant); test: H2030 xenograft antitumor efficacy; type: in vivo, mouse; details: 5 mg/kg once daily, 17 days, 1% Tween 80 formulation
SMARCA4 = SMARCA4 (Mus musculus, UniProt Q3TKT4); test: PK/PD study: SMARCA4 in spleen by Western blot; type: in vivo; details: C57BL/6 and Crbn I391V mice, compared to SMARCA2
Chain of SMARCA4 (Q3TKT4 whole entry): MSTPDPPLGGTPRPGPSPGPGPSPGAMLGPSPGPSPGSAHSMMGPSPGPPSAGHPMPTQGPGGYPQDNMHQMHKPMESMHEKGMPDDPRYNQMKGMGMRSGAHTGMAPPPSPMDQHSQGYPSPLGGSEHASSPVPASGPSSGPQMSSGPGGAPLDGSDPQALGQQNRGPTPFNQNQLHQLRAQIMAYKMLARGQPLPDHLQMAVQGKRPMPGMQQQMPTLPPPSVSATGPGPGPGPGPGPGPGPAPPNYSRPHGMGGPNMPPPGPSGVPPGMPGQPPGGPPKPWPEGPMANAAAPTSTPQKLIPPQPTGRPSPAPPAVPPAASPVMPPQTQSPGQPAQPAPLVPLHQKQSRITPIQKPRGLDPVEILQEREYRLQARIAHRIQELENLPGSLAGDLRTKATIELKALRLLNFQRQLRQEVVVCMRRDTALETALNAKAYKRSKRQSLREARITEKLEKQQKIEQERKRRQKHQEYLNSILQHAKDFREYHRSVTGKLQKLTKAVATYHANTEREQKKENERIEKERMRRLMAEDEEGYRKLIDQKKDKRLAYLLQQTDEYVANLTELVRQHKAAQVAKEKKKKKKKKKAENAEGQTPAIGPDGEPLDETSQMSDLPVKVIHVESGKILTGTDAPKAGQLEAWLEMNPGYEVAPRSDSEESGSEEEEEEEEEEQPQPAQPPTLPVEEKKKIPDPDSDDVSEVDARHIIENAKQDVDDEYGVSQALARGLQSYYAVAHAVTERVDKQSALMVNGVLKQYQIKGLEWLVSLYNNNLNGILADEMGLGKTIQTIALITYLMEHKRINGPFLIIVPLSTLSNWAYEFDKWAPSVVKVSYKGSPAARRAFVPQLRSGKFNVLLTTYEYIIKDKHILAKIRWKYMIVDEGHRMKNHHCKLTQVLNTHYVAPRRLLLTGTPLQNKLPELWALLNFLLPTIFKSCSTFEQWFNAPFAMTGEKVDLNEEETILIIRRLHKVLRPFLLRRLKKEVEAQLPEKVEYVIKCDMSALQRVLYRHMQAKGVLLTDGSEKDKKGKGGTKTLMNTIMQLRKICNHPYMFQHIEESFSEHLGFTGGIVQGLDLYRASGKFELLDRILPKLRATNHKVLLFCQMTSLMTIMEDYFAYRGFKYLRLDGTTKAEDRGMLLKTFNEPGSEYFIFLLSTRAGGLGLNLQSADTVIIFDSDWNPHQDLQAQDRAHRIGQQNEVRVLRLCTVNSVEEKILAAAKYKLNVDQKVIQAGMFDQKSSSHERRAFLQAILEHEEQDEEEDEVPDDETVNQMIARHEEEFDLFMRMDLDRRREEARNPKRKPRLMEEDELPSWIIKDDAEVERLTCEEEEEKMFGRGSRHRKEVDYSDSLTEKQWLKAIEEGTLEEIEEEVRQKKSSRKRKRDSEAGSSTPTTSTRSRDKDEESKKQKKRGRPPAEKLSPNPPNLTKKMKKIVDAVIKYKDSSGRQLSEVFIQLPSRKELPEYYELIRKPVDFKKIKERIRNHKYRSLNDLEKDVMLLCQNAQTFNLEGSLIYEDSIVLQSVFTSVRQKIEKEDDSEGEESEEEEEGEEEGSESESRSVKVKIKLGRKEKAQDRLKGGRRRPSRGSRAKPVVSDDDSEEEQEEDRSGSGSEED

SMARCA2 = SMARCA2 (Homo sapiens, UniProt P51531); test: SMARCA2 protein levels in xenograft tumors by Western blot; type: in vivo; details: H1568 xenograft efficacy study, 40 mg/kg once daily, 13 days
Chain of SMARCA2 (P51531 whole entry): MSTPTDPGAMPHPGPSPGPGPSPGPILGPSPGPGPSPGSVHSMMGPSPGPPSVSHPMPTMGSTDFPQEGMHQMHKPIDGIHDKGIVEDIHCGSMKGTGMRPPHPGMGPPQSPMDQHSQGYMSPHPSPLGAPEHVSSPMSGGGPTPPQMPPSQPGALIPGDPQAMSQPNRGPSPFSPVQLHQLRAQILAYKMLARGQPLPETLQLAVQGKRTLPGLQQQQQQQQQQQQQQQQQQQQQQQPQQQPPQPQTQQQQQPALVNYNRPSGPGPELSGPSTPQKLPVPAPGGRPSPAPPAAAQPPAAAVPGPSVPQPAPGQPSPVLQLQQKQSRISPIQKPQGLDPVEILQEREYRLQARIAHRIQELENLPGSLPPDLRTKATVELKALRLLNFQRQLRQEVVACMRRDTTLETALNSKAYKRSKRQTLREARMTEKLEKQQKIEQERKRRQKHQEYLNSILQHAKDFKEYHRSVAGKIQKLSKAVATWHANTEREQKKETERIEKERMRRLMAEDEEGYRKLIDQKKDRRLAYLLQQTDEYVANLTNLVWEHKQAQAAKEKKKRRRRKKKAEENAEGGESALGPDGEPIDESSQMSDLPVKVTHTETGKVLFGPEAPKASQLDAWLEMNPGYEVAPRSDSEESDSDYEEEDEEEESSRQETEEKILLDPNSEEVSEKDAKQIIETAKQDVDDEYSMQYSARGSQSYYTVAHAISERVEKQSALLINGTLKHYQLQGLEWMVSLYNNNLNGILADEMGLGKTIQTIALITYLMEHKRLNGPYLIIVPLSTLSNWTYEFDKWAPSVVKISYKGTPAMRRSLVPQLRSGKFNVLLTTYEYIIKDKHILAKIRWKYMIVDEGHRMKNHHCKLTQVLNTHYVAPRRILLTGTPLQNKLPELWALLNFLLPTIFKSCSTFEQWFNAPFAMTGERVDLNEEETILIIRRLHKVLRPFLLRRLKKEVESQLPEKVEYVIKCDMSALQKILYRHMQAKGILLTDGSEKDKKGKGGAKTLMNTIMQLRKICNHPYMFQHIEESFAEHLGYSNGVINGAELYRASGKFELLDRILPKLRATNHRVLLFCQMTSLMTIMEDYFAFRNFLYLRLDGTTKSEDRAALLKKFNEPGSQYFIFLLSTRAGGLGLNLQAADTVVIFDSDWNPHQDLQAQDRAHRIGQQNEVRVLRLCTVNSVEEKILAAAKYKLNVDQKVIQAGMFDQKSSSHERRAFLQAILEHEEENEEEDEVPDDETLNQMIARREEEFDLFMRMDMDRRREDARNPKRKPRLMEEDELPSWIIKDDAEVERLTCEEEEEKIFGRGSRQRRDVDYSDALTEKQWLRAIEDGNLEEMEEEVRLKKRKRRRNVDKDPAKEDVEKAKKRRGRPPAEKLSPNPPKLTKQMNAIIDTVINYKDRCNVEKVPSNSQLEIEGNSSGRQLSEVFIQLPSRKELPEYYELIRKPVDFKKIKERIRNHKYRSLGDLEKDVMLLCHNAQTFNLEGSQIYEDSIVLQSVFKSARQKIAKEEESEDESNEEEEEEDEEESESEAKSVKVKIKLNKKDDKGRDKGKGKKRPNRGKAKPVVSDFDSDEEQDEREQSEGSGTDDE

[8] = 21-day tolerability in mice; type: in vivo, mouse
[9] = tested on: H1568 xenograft model (SMARCA4 mutant); test: H1568 xenograft antitumor efficacy; type: in vivo, mouse; details: 40 mg/kg once daily, 13 days
ERK = test: pERK immunoblot in H2030 cells; details: sotorasib 0.5 µM, YDR1 or YD54 1.25 µM, 72 hours (YDR1), 48 hours (YD54)

Structure (SMILES) | SMARCA4 level in TMT proteomics [1] | Phosphorylation of YAP1 at S109 (YAP1) | Phosphorylation of YAP1 at S127 (YAP1) | remaining (T = 60 min) [2] | CLint scaled at 1 h [2] | half-life at 1 h [2] | microsomal CLint at 1 h [2] | Clearance class in human microsomal assays ([3]; human microsomal assay) | remaining (T = 60 min) ([3]; human microsomal assay) | CLint scaled at 1 h ([3]; human, liver microsomes) | Oral bioavailability (in words) [4] | further results
Nc1nnc(-c2ccccc2O)cc1N1CCN(Cc2ccc(N3CCN(CCOc4cccc5c4C(=O)N(C4CCC(=O)NC4=O)C5=O)CC3)c(F)c2)CC1 (stereo not drawn) [YD54] | minimally altered | drastic increase | potent increase | 0.414 | 119 mL/min/kg | 45.9 min | 30.2 µL/min/mg | moderate clearance | 0.3234 | 35.8 mL/min/kg | orally bioavailable | half-life at 1 h ([3]; human, liver microsomes, T1/2, human microsomal assay): 34.9 min; reduction in body weight compared to controls [5]: < 10%; reduction in body weight compared to controls [6]: < 20%; reduction in body weight compared to controls [7]: < 20%
Nc1nnc(-c2ccccc2O)cc1N1CCN(Cc2ccc(N3CCC(CN4CCN(c5ccc6c(c5)C(=O)N(C5CCC(=O)NC5=O)C6=O)CC4)CC3)c(F)c2)CC1 (stereo not drawn) [YDR1] | minimally altered | drastic increase | potent increase | 0.4998 | 91.9 mL/min/kg | 59.7 min | 23.2 µL/min/mg | slow clearance | 0.4743 | 21.5 mL/min/kg | robust oral bioavailability | T1/2 ([3]; human microsomal assay): 58.024 min; microsomal CLint at 1 h ([3]; human, liver microsomes): 23.9 µL/min/mg; half-life ([4]; CD-1, mouse, plasma, oral, 25 mg/kg): > 1440 min; degradation of SMARCA4 in spleen (SMARCA4): only modestly degraded; degradation of SMARCA2 in tumors (SMARCA2): about 50%; Body weight and signs of toxicity ([8]; daily treatment up to 80 mg/kg for 21 days): minimal body weight loss and no obvious signs of toxicity or morbidity; Tolerability ([8]; daily treatment with increasing doses up to 80 mg/kg for 21 days): well tolerated; Tolerability in efficacy study [9]: well tolerated with no change in body weight; reduction in body weight compared to controls [9]: < 10%
C=CC(=O)N1CCN(c2nc(=O)n(-c3c(C)ccnc3C(C)C)c3nc(-c4c(O)cccc4F)c(F)cc23)[C@@H](C)C1 [sotorasib] | – | – | – | – | – | – | – | – | – | – | – | phosphorylation of ERK (ERK): robustly reduced phosphorylation of ERK
